# Reference: ChEMBL document CHEMBL1201862, “PubChem BioAssay data set” (2004)
# Active and inactive are the calls of the source. Rule as the data show it, for most assays here: active = EC50 of 10 µM or less and inactive = more.
# Experiments:
# [1] = biological target: Sphingosine 1-phosphate receptor 1 (Homo sapiens, UniProt P21453); experiment: Fluorescence-based counterscreen assay for S1P4 agonists: Cell-based dose response high throughput screening assay to identify agonists of the Sphingosine 1-Phosphate Receptor 1 (S1P1). [Related pubchem assays (depositor defined):AID1509, AID1523, AID1801, AID463107, AID463118, AID463119, AID463122, AID463123, AID463129, AID463225, AID504400, AID504460]; format: functional
# [2] = biological target: Sphingosine 1-phosphate receptor 4 (Homo sapiens, UniProt O95977); experiment: Fluorescence dose response cell-based high throughput screening assay for agonists of the Sphingosine 1-Phosphate Receptor 4 (S1P4). [Related pubchem assays: 1509 (Primary screen.), 1523 (Confirmation screen in triplicates.)]; format: functional
# Sequence of Sphingosine 1-phosphate receptor 4 (O95977 whole entry): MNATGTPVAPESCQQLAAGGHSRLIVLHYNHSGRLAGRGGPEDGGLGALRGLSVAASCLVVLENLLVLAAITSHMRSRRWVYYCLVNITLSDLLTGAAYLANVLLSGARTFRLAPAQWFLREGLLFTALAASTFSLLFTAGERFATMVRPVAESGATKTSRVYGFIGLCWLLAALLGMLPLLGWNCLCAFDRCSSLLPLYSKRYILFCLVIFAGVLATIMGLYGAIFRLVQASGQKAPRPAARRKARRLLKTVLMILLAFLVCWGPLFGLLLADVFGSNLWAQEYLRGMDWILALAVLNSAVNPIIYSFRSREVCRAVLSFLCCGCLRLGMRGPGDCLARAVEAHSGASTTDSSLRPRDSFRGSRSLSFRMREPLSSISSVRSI
# [3] = biological target: T1, E3 ubiquitin-protein ligase XIAP (Homo sapiens, UniProt P98170); experiment: Counter Screen using XIAP-Bir3 for Chemical Antagonists of Bir1/2 domains of IAP-family anti-apoptotic proteins. [Related pubchem assays (depositor defined):AID1018, AID1449, AID1514, AID1638, AID1749, AID1750, AID488957, AID488963]
# T1 sequence (P98170 whole entry): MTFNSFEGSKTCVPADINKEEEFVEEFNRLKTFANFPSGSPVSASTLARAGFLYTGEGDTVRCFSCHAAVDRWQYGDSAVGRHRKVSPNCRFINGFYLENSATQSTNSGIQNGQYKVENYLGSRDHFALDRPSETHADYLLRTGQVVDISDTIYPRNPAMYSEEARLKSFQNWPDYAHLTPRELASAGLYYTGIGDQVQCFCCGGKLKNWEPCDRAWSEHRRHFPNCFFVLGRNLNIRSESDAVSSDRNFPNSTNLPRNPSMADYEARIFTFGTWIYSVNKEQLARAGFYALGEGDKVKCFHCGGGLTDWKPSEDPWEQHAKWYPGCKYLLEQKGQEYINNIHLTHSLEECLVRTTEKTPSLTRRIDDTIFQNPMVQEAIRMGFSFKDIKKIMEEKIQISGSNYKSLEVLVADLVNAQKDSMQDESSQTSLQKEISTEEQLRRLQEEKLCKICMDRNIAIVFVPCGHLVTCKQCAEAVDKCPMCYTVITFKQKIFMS
# [4] = biological target: T1, E3 ubiquitin-protein ligase XIAP; experiment: small molecules displacing peptide from XIAP – biochemical, IAP family, fluorescence polarization (AID 1018); format: functional
# [5] = biological target: Peroxisome proliferator-activated receptor gamma/Nuclear receptor coactivator 1 (Homo sapiens, UniProt P37231); experiment: (§1) TR-FRET dose response biochemical High Throughput Screening assay for agonists of the steroid receptor coactivator 1 (SRC-1) recruitment by the peroxisome proliferator-activated receptor gamma (PPAR gamma): non-selective agonists. [Related pubchem assays (depositor defined):AID1300, AID1808, AID504735, AID631]; format: protein assay
# Sequence of Peroxisome proliferator-activated receptor gamma/Nuclear receptor coactivator 1 (P37231 whole entry): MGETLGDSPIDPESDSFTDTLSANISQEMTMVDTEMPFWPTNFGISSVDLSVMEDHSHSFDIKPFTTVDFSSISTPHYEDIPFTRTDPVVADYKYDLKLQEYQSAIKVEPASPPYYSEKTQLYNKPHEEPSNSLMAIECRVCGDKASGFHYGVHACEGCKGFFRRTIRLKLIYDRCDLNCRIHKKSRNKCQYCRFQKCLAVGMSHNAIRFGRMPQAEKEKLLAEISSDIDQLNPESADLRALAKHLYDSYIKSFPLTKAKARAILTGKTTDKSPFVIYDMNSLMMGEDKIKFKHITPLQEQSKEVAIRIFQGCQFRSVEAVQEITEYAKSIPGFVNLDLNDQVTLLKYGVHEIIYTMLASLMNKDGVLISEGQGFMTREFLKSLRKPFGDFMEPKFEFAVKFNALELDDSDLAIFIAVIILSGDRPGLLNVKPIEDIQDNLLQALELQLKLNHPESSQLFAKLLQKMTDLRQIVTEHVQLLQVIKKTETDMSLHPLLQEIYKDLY
# Sequence of Peroxisome proliferator-activated receptor gamma/Nuclear receptor coactivator 1 (Q15788 whole entry, further chain): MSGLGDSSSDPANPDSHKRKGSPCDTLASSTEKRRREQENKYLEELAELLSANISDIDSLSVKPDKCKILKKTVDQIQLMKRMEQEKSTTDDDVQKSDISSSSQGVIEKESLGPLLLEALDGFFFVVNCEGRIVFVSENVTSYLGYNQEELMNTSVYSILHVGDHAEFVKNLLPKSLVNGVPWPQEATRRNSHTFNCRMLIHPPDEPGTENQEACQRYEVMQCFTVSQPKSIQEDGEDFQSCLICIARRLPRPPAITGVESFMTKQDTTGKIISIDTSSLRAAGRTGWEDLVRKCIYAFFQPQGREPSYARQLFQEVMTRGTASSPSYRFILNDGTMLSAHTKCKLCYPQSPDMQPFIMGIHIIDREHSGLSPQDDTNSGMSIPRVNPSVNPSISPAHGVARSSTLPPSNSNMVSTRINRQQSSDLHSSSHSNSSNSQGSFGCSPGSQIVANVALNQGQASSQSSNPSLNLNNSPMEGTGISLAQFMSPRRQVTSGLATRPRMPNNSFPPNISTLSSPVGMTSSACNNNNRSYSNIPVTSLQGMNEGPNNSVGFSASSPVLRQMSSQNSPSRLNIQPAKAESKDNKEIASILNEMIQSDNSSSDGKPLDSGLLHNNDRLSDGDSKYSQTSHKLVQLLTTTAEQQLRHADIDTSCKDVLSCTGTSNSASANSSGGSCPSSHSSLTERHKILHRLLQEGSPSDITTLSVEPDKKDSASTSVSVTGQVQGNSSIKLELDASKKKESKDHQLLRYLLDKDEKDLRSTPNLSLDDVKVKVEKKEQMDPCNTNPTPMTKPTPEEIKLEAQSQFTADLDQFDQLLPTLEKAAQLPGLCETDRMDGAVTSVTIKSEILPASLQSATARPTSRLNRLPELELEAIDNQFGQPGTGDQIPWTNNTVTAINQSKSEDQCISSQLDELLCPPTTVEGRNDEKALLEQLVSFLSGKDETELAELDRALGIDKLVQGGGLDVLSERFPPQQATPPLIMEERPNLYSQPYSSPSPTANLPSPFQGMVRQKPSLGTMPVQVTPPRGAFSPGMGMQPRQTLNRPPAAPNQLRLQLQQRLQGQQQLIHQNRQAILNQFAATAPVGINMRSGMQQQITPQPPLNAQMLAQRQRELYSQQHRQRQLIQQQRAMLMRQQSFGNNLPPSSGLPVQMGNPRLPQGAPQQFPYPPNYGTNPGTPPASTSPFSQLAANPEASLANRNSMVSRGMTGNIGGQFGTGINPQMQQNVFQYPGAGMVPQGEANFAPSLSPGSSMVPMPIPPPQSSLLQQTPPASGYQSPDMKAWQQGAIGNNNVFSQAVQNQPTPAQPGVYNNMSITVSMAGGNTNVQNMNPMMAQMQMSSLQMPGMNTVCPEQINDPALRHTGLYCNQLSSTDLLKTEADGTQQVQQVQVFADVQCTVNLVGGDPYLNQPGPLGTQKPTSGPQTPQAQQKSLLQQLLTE
# [6] = biological target: Peroxisome proliferator-activated receptor gamma/Nuclear receptor coactivator 3 (Homo sapiens, UniProt P37231); experiment: as §1, with “3 (SRC-3)” for “1 (SRC-1)”, “assays: 1301 (Confirmation screen.), 1048 (Primary screen.)]” for “assays (depositor defined):AID1300, AID1808, AID504735, AID631]”; format: functional
# Sequence of Peroxisome proliferator-activated receptor gamma/Nuclear receptor coactivator 3 (P37231 whole entry): as the sequence (P37231 whole entry) above
# Sequence of Peroxisome proliferator-activated receptor gamma/Nuclear receptor coactivator 3 (Q9Y6Q9 whole entry, further chain): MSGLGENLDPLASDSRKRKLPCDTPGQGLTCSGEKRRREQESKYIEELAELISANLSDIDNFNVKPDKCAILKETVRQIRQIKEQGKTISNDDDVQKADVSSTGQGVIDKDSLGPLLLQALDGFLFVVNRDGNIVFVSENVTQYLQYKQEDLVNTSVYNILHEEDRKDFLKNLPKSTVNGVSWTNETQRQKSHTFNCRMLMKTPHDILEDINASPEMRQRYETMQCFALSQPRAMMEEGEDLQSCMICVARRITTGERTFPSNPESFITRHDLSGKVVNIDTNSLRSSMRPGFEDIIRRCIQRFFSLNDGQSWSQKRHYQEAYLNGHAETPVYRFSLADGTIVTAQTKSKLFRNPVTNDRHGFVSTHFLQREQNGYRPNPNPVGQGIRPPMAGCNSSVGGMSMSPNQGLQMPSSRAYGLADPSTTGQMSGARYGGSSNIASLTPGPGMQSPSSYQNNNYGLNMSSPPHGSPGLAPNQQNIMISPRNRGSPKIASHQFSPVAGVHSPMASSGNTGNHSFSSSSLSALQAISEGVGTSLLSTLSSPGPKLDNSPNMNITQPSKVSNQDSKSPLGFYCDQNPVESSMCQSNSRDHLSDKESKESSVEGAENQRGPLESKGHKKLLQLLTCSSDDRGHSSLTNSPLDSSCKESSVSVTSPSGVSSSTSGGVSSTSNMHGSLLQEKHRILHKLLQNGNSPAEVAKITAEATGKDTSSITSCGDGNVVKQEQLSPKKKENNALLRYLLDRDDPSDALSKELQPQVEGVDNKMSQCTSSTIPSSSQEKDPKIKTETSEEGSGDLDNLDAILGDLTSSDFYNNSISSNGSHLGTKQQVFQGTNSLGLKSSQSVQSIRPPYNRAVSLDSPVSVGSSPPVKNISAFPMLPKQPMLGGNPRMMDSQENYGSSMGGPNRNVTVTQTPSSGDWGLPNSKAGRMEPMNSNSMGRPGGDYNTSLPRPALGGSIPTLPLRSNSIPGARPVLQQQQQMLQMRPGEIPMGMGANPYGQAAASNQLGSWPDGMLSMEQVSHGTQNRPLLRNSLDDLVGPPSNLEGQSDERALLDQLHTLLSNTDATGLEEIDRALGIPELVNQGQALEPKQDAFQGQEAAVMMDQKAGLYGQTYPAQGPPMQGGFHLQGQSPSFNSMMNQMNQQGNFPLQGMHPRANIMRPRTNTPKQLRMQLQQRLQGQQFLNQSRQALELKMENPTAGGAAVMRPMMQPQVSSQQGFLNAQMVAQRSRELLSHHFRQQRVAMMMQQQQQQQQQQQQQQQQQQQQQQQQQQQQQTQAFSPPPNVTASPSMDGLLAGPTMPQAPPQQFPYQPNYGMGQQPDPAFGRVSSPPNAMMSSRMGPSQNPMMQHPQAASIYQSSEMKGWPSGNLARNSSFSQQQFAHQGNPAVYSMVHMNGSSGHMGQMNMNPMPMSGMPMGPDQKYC
# [7] = biological target: Peroxisome proliferator-activated receptor gamma/Nuclear receptor coactivator 2 (Homo sapiens, UniProt P37231); experiment: TR-FRET dose response biochemical High Throughput Screening assay for agonists of the steroid receptor coactivator 2 (SRC-2) recruitment by the peroxisome proliferator-activated receptor gamma (PPAR gamma): non-selective agonists. [Related pubchem assays: 1297, 1032 ]; format: functional
# [8] = biological target: FAD-linked sulfhydryl oxidase ALR (Homo sapiens, UniProt P55789); experiment: ALR-catalysed DTT oxidation blockers – biochemical, H2O2 detection, luminescence, cherry-pick, dose response (AID 493248)
# Sequence of FAD-linked sulfhydryl oxidase ALR (P55789 whole entry): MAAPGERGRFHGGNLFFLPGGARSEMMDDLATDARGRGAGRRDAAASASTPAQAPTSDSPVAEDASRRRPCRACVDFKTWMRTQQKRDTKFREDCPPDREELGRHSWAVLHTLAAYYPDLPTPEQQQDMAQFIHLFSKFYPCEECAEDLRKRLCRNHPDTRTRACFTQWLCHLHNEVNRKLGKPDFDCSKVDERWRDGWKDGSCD
smiles,measurement,setting,value
CCNC(=O)NC(=O)C(C)OC(=O)c1c(C)nn(Cc2ccccc2)c1Cl (stereo not drawn),EC50,[1],> 49.8 µM (inactive)
same,EC50,[2],49.8 µM (not active)
CCOc1ccc(NC(=S)NCCCN2CCN(C3CCCCC3)CC2)cc1,IC50,[3],> 100 µM (inactive)
same,IC50,[4],> 100 µM (not active)
Cc1c(Cl)c(-c2nnc(S)n2-c2ccccc2)nn1C,EC50,[5],> 79.4 µM (inactive)
same,EC50,[6],> 79.4 µM (not active)
same,EC50,[7],> 79.4 µM (not active)
same,AC50,[8],< 14 nM (active)
